Like-named read-outs stand apart in the source and are kept apart here.

Data set [1] concerns polyamine pools in L1210 cells. Description: Effect on native polyamine pools in L1210 cells (HPLC). The data set is classed as cell-based, murine. The conditions noted are these: L1210 cells, treatment concentration 100 μM.
Experimental: At the end of the treatment period, cell suspensions were sampled, washed three times in ice-cold, incomplete medium, and pelleted for extraction using 0.6 N perchloric acid, then freeze-fractured in liquid nitrogen/hot water three times. Each supernatant was frozen at −20° C. until analysis of polyamine content by HPLC. […] The buffer consisted of potassium phosphate (10 mM) and EDTA (2 mM), pH 2.9.
In data set [2] the test system is Adenosylmethionine decarboxylase (AdoMet DC). Description: AdoMetDC activity in treated L1210 cells. The data set is classed as cell-based, murine. How it is done: Ornithine decarboxylase (ODC) and Adenosylmethionine decarboxylase (AdoMet DC) activities were determined according to the procedures of Seely, J. E., Pegg, A. E., “Ornithine Decarboxylase (Mouse Kidney),” Methods Enzymol. 94: 158-161 (1983) and Pegg, A. E., Pösö, H., “S-Adenosylmethionine Decarboxylase (Rat Liver),” Methods Enzymol. 94: 234-239 (1983), respectively, on the basis of quantitation of ^14CO2 released from [^14C]carboxyl-labeled L-ornithine or S-adenosyl-L-methionine. Included in each assay were untreated L210 cells as negative controls as well as cells treated with DEHSPM, a drug having a known reproducible effect on each enzyme, as positive controls.

The test system of data set [3] is Spermidine/spermine N^1-acetyl transferase (SSAT). The data set is described as follows: SSAT activity in treated L1210 cells. The data set is classed as cell-based, murine. The text has this:
Spermidine/spermine N^1-acetyl transferase (SSAT) activity was based on quantitation of [^14C]-N^1-acetylspermidine formed by acetylation of SPD with [^14C]-acetyl coenzyme A according to the method of Libby, P. R., Bergeron, R. J., Porter, C. W., “Structure-Function Correlations of Polyamine Analog-Induced Increases in Spermidine/Spermine Acetyltransferase Activity,” Biochem. Pharmacol. 38: 1435-1442 (1989). Cells treated with DENSPM were positive controls.

Data set [4] concerns Murine L1210 leukemia cells. The conditions noted are these: cited from earlier work.
A further data set deals with polyamine transporter. The settings on record: L1210 cell suspensions; read-out: Ki, competition for the polyamine transport apparatus (historical numbers); cited from earlier work.
For data set [5], the system named is L1210 leukemia cells. The data set is described as follows: Intracellular concentration / accumulation of analogue in L1210 cells (HPLC). The conditions noted are these: treatment concentration 100 μM.
Experimental: At the end of the treatment period, cell suspensions were sampled, washed three times in ice-cold, incomplete medium, and pelleted for extraction using 0.6 N perchloric acid, then freeze-fractured in liquid nitrogen/hot water three times.
During logarithmic growth, cells were treated with the compounds. At the end of the treatment period, cell suspensions were sampled, washed three times in ice-cold, incomplete medium, and pelleted for extraction using 0.6 N perchloric acid, then freeze-fractured in liquid nitrogen/hot water three times. Each supernatant was frozen at −20° C. until analysis of analogue content by HPLC,
Analytical separation was performed on a Waters Symmetry C18 column (250 mm×4.6 mm, 5 μm) with a guard column using a Rainin Instrument Company HPLC system. The buffer employed was sodium octanesulfonate (2.5 mM) in potassium phosphate (25 mM), pH 3.0. Mobile phase A consisted of 5% CH3CN, 95% buffer; mobile phase B consisted of 60% CH3CN, 40% buffer. The solvent gradient program employed a linear gradient that increased from 20% mobile phase B to 40% mobile phase B over 40 min and a 5-min ramp to 100% B over 5 min. Post-column derivatization used a boric acid buffer system (H3BO3, 3.1% w/v; KOH, 2.6% w/v; 2-mercaptoethanol, 0.6% v/v) that contained o-phthaldialdehyde (10 mL of a 4% w/v solution in CH3OH per L of buffer). The flow rate was 0.4 mL/min, isocratic; UV detection (λex, 340 nm; λem, 445 nm) was utilized.
Analytical separation was performed on a reversed-phase Supelco Discovery RP Amide C16 column (150×4.6 mm, 5 μm) on the system described above, and UV detection was at 300 nm. The mobile phases were pumped at a flow rate of 1.5 mL/min. The buffer and mobile phases A and B were the same as described above. The solvent gradient program employed an initial 10-min isocratic portion with 5% mobile phase B (95% A), followed by a linear gradient increase to 80% mobile phase B at 35 min, a 5-min ramp to 100% B held for 10 min, and ramping back to 5% mobile phase B for 8 min (58-65 min total).
In both cases, the concentrations were calculated from the peak area fitted to calibration curves by nonweighted least squares linear regression with Rainin Dynamax HPLC Method Manager software (Rainin Instrument Co.).
Data set [6] relates to Murine L1210 leukemia cells. Description: L1210 cell growth inhibition (IC50). In kind it is cell-based. On the procedure:
Murine L1210 leukemia cells were maintained in logarithmic growth as a suspension culture in RPMI-1640 medium (Gibco, Grand Island, N.Y.) containing 10% fetal bovine serum (Gibco), 2% HEPES-MOPS buffer, 1 mM L-glutamine (Gibco), and 1 mM aminoguanidine at 37° C. in a water-jacketed 5% CO2 incubator.
Cells were grown in 25 cm^2 tissue culture flasks in a total volume of 10 mL. Cultures were treated during logarithmic growth (0.5−1.0×10^5 cells/mL) with the compounds of interest, reseeded, and incubated as described in Bergeron, R. J., Müller, R., Bussenius, J., McManis, J. S., Merriman, R. L., Smith, R. E., Yao, H., Weimar, W. R., “Synthesis and Evaluation of Hydroxylated Polyamine Analogues as Antiproliferatives,” J. Med. Chem 43: 224-235 (2000). Cell counting and calculation of percent of control growth were also carried out as described in Bergeron, et al. The IC50 is defined as the concentration of compound necessary to reduce cell growth to 50% of control growth after defined intervals of exposure.

The subject of data set [7] is L1210 leukemia cells. The conditions noted are these: extracellular 30 μM; cited from earlier work.

In the case of `CCCNCCCCNCCCN` [MPSPD(N^8), N^8-propylspermidine], in data set [1], the “putrescine, percent of control” value is recorded as “lowered” and the “spermidine, percent of control” value is “lowered”. For the same compound, the activity at 100 µM in data set [1] (Mus musculus, read-out: spermine, percent of control) came to 103%. In addition, the “AdoMetDC activity, % of control” value in data set [2] is given as 64 % of control. Moreover, the “SSAT activity, % of control” value in data set [3] is 500 % of control. Also, the IC50 in data set [4] (48 h exposure, read-out: IC50, 48 h (historical numbers)) was over 100 µM. In data set [4] (96 h exposure, read-out: IC50, 96 h (historical numbers)), the IC50 was 55 µM. In addition, on polyamine transporter, the Ki was 8.5 µM. For the same compound, in the data set with L1210 leukemia cells [5], the “intracellular concentration (analogue accumulation)” value came to 3.52 mM.

`CCNCCCNCCCCNCCCNCC` [DESPM]: the 50% inhibitory concentration (IC50) in data set [6] (48 h exposure, read-out: IC50, 48 h) was 30 µM; in data set [6] (96 h exposure, read-out: IC50, 96 h), 0.2 µM. The “intracellular level (previous studies)” value in the data set with L1210 leukemia cells [7] was 400 µM.

The term IC50 denotes the concentration that gives 50% inhibition. As a reminder, the Ki is the equilibrium dissociation constant of an inhibitor or competing ligand from its target.

The values are drawn from patent publication US20080096974A2, “Polyamine-Metal Chelator Conjugates” (University of Florida Research Foundation, Inc., priority 2003, published 2008).
